The values that follow come from ChEMBL document CHEMBL5291721, “A preclinical secondary pharmacology resource illuminates target-adverse drug reaction associations of marketed drugs” (Nat Commun, 2023).

A value given as a limit tells only on which side of the number the result lay.

Test [1] has as its target cGMP-inhibited 3',5'-cyclic phosphodiesterase 3A (Homo sapiens, UniProt Q14432). Type of test: functional.
The target of test [2] is 3',5'-cyclic-AMP phosphodiesterase 4A (Homo sapiens, UniProt P27815). It is filed as functional.
The target of test [3] is T1, Thromboxane A2 receptor (Homo sapiens, UniProt P21731).
T1 sequence (P21731 whole entry): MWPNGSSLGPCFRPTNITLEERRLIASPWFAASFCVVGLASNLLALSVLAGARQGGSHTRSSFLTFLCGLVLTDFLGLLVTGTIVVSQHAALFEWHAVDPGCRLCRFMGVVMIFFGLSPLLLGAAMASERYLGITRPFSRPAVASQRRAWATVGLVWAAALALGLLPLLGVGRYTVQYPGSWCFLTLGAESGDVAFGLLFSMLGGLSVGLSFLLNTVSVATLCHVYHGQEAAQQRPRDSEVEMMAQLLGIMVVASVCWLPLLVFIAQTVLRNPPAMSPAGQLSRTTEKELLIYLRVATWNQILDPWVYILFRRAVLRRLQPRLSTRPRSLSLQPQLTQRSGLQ
Type of test: functional, cell-based.

Test [4] addresses T2, Amine oxidase [flavin-containing] A (Homo sapiens, UniProt P21397).
T2 sequence (P21397 whole entry): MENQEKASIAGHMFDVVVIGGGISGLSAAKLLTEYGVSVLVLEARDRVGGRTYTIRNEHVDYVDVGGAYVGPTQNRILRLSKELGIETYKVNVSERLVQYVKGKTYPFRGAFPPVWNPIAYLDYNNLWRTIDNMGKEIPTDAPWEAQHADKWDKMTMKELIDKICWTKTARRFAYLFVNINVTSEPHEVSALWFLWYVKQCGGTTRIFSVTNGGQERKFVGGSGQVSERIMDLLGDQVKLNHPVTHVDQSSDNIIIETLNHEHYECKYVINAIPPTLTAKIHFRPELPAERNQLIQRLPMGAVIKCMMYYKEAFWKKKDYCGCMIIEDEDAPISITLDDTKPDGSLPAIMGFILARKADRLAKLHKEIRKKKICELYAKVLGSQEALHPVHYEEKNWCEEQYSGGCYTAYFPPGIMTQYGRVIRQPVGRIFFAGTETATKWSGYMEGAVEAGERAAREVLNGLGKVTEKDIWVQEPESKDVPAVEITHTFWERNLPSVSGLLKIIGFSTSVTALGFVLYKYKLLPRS
Type of test: functional.

For test [5], the target named is T3, Alpha-2A adrenergic receptor (Homo sapiens, UniProt P08913).
T3 sequence (P08913 whole entry): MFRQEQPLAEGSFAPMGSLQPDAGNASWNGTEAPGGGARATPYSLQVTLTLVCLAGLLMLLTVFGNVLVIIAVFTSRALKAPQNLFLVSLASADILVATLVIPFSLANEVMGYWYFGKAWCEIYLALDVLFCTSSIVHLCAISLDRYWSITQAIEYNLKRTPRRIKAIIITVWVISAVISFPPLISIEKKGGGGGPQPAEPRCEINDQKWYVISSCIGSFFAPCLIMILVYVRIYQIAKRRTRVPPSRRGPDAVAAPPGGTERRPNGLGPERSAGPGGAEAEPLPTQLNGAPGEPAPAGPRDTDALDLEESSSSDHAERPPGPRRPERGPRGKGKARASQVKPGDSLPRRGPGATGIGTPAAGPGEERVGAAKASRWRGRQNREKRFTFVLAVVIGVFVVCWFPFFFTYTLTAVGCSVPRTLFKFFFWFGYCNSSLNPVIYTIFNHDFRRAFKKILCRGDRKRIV

Test [6] deals with T4, 5-hydroxytryptamine receptor 1A (Homo sapiens, UniProt P08908).
T4 sequence (P08908 whole entry): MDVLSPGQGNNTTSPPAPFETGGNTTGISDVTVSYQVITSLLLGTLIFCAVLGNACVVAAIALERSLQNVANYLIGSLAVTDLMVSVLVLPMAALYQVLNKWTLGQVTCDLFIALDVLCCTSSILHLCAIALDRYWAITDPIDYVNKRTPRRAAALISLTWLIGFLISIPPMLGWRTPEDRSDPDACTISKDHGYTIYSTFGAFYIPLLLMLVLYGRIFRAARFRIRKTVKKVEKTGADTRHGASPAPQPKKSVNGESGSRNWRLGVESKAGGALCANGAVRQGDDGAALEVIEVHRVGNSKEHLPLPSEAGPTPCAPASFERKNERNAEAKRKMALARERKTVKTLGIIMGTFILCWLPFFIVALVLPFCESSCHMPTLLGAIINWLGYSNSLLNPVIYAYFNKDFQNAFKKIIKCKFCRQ

The target in test [7] is Sodium-dependent dopamine transporter (Homo sapiens, UniProt Q01959).
For test [8], the target named is Prothrombin (Homo sapiens, UniProt P00734). Type of test: functional.
Test [9] deals with D(3) dopamine receptor (Homo sapiens, UniProt P35462).
Test [10] has as its target Sodium-dependent noradrenaline transporter (Homo sapiens, UniProt P23975).
The target of test [11] is D(1A) dopamine receptor (Homo sapiens, UniProt P21728).
Test [12] has as its target Prostaglandin G/H synthase 1 (Homo sapiens, UniProt P23219). Type of test: functional.
The target of test [13] is T1, Thromboxane A2 receptor. Type of test: functional, cell-based. The source holds these as a separate data set.
The target in test [14] is 5-hydroxytryptamine receptor 2B (Homo sapiens, UniProt P41595). Type of test: functional, cell-based.
The target of test [15] is T5, Muscarinic acetylcholine receptor M2 (Homo sapiens, UniProt P08172).
T5 sequence (P08172 whole entry): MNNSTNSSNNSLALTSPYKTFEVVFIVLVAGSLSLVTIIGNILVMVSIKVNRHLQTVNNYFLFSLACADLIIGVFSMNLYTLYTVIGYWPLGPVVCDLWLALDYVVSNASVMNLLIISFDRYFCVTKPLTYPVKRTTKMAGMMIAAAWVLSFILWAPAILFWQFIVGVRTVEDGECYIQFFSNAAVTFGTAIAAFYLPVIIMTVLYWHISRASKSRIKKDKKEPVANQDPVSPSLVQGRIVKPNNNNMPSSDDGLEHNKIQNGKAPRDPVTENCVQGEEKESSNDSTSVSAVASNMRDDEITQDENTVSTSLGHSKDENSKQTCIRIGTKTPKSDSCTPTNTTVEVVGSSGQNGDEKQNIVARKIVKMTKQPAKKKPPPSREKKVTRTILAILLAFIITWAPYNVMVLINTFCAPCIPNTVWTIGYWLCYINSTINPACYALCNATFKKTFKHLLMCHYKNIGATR
Note: assay procedure not described here.

D(3) dopamine receptor, sequence (P35462 whole entry): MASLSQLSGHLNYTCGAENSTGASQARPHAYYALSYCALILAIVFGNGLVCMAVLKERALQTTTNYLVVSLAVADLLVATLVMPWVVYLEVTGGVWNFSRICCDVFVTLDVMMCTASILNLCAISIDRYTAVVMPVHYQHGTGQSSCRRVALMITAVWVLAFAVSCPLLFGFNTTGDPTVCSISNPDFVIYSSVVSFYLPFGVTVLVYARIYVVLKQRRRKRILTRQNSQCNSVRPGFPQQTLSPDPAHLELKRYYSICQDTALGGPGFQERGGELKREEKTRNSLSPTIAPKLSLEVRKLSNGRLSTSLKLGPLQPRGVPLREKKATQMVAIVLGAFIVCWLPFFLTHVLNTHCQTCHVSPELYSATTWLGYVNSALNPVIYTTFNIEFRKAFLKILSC
cGMP-inhibited 3',5'-cyclic phosphodiesterase 3A, sequence (Q14432 whole entry): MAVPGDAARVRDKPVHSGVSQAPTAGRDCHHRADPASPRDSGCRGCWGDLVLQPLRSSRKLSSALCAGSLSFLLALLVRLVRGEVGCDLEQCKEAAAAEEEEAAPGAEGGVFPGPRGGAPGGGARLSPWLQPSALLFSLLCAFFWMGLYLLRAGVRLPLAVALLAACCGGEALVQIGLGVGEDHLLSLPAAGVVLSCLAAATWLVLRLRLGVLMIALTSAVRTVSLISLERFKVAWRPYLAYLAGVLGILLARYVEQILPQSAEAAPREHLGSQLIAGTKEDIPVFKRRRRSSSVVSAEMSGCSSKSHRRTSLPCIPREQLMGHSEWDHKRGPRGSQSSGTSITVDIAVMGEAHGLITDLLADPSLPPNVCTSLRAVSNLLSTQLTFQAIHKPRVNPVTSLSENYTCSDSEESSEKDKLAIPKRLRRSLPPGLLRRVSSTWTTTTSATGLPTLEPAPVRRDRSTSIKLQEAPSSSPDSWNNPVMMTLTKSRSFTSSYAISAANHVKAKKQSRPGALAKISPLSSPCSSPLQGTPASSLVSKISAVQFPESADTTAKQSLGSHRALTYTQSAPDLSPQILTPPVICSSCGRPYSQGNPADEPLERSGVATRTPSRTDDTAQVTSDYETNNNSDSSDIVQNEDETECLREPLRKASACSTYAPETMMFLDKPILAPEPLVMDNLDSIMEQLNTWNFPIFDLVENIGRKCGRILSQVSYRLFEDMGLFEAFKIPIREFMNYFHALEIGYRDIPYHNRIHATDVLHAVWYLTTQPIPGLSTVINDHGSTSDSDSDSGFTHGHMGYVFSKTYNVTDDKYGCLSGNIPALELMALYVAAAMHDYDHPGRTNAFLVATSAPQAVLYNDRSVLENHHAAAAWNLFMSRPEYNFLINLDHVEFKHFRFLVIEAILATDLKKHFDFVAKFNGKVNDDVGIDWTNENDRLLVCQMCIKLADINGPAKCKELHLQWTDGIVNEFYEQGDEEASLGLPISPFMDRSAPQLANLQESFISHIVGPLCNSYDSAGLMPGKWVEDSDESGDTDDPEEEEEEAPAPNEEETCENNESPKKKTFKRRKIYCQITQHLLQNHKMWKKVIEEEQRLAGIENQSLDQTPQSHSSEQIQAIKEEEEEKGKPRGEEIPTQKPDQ
Sodium-dependent noradrenaline transporter, sequence (P23975 whole entry): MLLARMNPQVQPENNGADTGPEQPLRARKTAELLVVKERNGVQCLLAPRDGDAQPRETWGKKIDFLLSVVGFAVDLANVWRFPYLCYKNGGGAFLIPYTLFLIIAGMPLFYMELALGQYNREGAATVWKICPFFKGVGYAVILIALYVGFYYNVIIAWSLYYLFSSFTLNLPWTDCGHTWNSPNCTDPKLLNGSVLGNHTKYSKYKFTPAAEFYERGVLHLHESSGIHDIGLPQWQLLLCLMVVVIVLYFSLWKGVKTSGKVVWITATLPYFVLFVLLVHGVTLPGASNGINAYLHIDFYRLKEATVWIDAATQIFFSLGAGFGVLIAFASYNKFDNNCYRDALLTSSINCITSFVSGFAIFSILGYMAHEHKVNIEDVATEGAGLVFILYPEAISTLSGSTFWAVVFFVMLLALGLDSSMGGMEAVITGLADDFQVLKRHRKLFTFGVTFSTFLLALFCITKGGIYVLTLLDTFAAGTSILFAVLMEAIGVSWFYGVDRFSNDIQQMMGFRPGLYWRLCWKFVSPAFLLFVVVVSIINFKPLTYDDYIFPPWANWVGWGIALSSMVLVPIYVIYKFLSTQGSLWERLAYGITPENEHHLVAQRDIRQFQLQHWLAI
3',5'-cyclic-AMP phosphodiesterase 4A, sequence (P27815 whole entry): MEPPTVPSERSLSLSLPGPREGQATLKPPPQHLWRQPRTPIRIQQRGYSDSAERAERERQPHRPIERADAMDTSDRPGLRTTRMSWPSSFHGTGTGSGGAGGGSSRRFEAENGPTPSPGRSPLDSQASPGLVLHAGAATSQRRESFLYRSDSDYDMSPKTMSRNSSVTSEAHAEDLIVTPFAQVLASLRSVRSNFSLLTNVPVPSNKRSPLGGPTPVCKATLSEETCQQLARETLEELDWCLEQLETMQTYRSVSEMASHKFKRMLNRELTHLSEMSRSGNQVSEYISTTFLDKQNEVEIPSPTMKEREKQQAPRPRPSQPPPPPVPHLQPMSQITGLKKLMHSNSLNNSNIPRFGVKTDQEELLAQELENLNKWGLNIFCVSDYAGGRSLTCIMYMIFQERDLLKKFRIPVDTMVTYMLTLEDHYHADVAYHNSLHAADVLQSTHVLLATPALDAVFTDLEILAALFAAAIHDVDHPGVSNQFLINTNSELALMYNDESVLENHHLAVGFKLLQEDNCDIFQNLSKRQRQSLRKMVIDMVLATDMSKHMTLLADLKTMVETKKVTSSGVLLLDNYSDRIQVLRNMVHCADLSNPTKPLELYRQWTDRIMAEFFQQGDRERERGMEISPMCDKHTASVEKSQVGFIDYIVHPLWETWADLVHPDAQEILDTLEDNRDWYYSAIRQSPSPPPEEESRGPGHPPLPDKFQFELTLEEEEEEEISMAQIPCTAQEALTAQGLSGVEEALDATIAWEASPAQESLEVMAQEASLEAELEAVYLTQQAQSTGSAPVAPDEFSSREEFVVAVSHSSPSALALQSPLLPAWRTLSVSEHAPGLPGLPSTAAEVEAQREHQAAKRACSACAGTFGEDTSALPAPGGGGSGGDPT
5-hydroxytryptamine receptor 2B, sequence (P41595 whole entry): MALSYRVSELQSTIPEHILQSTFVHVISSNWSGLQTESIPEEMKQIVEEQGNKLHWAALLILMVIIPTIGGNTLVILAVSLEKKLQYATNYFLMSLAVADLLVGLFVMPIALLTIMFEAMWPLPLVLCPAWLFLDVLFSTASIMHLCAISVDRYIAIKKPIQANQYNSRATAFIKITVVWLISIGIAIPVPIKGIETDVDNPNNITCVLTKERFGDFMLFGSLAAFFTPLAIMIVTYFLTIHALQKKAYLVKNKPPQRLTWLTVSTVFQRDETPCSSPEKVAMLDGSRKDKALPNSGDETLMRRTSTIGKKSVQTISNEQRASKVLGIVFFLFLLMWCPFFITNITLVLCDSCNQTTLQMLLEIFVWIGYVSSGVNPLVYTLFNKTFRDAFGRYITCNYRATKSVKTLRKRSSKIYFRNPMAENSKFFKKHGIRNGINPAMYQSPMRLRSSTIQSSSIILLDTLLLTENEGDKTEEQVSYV
Sodium-dependent dopamine transporter, sequence (Q01959 whole entry): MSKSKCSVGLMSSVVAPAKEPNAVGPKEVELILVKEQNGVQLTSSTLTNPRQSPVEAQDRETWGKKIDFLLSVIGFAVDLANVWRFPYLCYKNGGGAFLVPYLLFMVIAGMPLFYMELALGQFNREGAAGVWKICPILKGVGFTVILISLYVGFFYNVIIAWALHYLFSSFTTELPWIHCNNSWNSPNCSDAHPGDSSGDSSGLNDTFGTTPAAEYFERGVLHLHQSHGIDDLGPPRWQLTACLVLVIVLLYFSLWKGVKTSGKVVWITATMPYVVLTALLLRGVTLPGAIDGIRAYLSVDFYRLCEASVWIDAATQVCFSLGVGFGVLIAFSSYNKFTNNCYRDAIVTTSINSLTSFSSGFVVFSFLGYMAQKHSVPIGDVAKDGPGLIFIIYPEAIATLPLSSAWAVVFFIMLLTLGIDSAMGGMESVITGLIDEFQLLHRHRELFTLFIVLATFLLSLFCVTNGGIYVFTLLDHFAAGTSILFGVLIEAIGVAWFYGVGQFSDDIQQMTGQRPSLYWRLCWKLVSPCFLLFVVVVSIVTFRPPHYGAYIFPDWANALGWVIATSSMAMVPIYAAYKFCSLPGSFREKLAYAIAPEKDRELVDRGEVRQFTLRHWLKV
Prostaglandin G/H synthase 1, sequence (P23219 whole entry): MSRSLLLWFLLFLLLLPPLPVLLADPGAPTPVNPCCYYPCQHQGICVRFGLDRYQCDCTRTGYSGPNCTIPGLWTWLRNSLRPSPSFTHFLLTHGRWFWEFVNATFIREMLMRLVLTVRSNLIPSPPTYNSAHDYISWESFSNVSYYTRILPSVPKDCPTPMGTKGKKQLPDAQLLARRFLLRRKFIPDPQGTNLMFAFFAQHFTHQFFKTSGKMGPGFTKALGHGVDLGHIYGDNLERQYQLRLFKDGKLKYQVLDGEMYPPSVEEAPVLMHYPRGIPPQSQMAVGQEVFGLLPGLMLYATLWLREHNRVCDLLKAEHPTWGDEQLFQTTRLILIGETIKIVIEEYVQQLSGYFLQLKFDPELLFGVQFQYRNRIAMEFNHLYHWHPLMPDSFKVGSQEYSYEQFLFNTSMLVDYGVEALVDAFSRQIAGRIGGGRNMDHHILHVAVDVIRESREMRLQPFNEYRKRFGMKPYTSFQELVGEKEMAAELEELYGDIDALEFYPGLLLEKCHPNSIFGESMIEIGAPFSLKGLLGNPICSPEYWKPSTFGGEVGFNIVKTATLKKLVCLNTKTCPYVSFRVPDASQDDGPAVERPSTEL

The term AC50 denotes the concentration giving half of the maximal activity seen. Low readings indicate greater potency, high ones weaker potency. For the compound `CN1CCC[C@@H]1Cc1c[nH]c2ccc(CCS(=O)(=O)c3ccccc3)cc12`, the AC50 in test [1] was above 30 µM; in test [2] it was above 30 µM; in test [3] it was above 30 µM; in [4], above 30 µM; in test [5], 7.51 µM; in test [6] it was 0.0214 µM. Besides, the AC50 in test [7] is 26.6 µM; in [8], above 30 µM; in [9], above 30 µM; in [10], 17.8 µM; in test [11], 27.7 µM; in test [12], above 30 µM. For the same compound, the AC50 in test [13] is above 30 µM; in test [14], above 10 µM.
As for `COc1nccnc1NS(=O)(=O)c1ccc(N)cc1`, the AC50 in test [1], in [2], in [3], in test [4], in test [5] and in test [6] was above 30 µM in each case. For the same compound, the AC50 in [7], in [8], in [9], in [10], in [15] and in [11] was above 30 µM throughout. Further, the AC50 in [12], in test [13] and in [14] was above 30 µM each time.
On to `O=C(Nc1cccc2c(=O)cc(-c3nnn[nH]3)oc12)c1ccc(OCCCCc2ccccc2)cc1`, for which the half-maximal activity concentration (AC50) in test [1] is above 30 µM; in [2] it was 8.21 µM; in test [3], above 30 µM; in [4], above 30 µM; in test [5] it was above 30 µM; in [6], 4.1 µM. Besides, the AC50 in test [7] was 8.24 µM; in [8], above 30 µM; in [9], 4.45 µM; in [10] it was 7.06 µM; in [15], above 30 µM; in [11], 10.1 µM. Moreover, the AC50 in test [12], in [13] and in test [14] was above 30 µM throughout.
Take `NC(=O)c1nc(F)c[nH]c1=O`: the AC50 in test [1], in test [2], in [3], in test [4], in test [5] and in test [6] was above 30 µM throughout. Moreover, the AC50 in test [7] was above 30 µM; in test [8] it was above 10 µM; in test [9], above 30 µM; in test [10], above 30 µM; in [15], above 30 µM; in test [11], above 30 µM. The AC50 in test [12], in [13] and in [14] was above 30 µM in each case.
In the case of `CN(C)CCCN1C(=O)c2cc([N+](=O)[O-])ccc2Oc2ccccc21`, the AC50 was above 30 µM in [1]; above 30 µM in [2]; above 30 µM in test [3]; above 30 µM in test [4]; 28.4 µM in test [5]; 4.17 µM in test [6]. The half-maximal activity concentration (AC50) was above 30 µM in test [7]; above 30 µM in test [8]; 15 µM in [9]; above 30 µM in test [10]; 20.6 µM in test [15]; 26 µM in test [11]. The AC50 in [12], in test [13] and in [14] was above 30 µM in each case.
As for `O=S(=O)(O)CCS` [2-MERCAPTOETHANESULFONIC ACID], the AC50 was above 30 µM in [1]; 9 µM in test [2]; above 30 µM in test [3]; above 30 µM in [4]; above 30 µM in test [5]; above 30 µM in test [6]. Also, the AC50 in [7], in test [8], in test [9], in [10], in test [15] and in test [11] was above 30 µM each time. Further, the AC50 in test [12] is 0.78 µM; in test [13], above 30 µM; in test [14] it was above 30 µM.
With `CN(C)CCN(Cc1ccc(Cl)cc1)c1ccccn1` [CHLOROPYRAMINE], the AC50 in [1] was above 30 µM; in [2], above 30 µM; in test [3] it was above 30 µM; in [4], above 30 µM; in test [5], 12.2 µM; in [6], above 30 µM. Also, the half-maximal activity concentration (AC50) in [7] was 0.21 µM; in test [8] it was above 30 µM; in test [9], 1.35 µM; in test [10], 19.4 µM; in test [15], 2.88 µM; in test [11] it was 2.23 µM. The AC50 in test [12], in [13] and in test [14] was above 30 µM each time.
With `C[C@]12CCC(=O)C=C1CC[C@@H]1[C@@H]2[C@@H](O)C[C@@]2(C)[C@H]1CC[C@]2(O)C(=O)COC(=O)CCC(=O)O` [HYDROCORTISONE HEMISUCCINATE ANHYDROUS], the AC50 in test [1], in test [2], in test [3], in test [4], in test [5] and in test [6] was above 30 µM throughout. The AC50 in test [7], in test [8], in test [10], in test [15], in test [11] and in test [12] was above 30 µM throughout. The AC50 in [13] and in [14] was above 30 µM in each case.
In the case of `CNC[C@H](O)c1cccc(O)c1` [PHENYLEPHRINE], the AC50 is above 30 µM in test [1]; above 30 µM in [2]; above 30 µM in test [3]; above 30 µM in [4]; 1.31 µM in test [6]; 29.4 µM in test [7]. Further, the AC50 in [8] was above 30 µM; in [9] it was 4.68 µM; in [10] it was above 30 µM; in test [15], above 30 µM; in test [11] it was 18.1 µM; in test [12], above 30 µM. Also, the AC50 in test [13] and in test [14] was above 30 µM each time.
